# Laboratory results as given in patent US20040176329A1, “Drugs for promoting the proliferation, differentiation and/or survival of glial cells containing cyclic phosphatidic acid” (priority 2001, published 2004).
# Tests used:
# [1] = tested on: NIH-3T3; test: Formation of stress fiber in NIH-3T3 by addition of lysophospholipids; format: cell-based, mouse; conditions: 10 μM, 37° C., 30 minutes, subconfluent serum starvation state; control: no formation
# Method: NIH-3T3, a mouse-derived fibroblast cell, was incubated in a Dulbecoo's Modified Eagle's Medium (DMEM) containing 10% fetal bovine serum (FBS; made by Moregate), and was used in the Experiment. 2.5 ×10^4 cells of the NIH-3T3 were inoculated in a petri dish (10 cm in diameter) paved with cover glasses of 22 mm in diameter, and the medium was replacing with a FBS-free medium after 24 hours, and the cells were incubated in a serum starvation state for 48 hours. 10 μM of the lysophospholipid was added, and the cells were incubated at 37° C. for 30 minutes for stimulation. Then, the cells were fixed in the Dalbecco's PBS containing 3.7% of paraformaldehyde and 0.1% of Triton X-100 at room temperature for 10 minutes. Thereafter, the cells were stained with 5 units/ml of rhodamine phalloidin (made by Funakoshi) at 37° C. for 1 hour. The cover glasses were washed with PBS thrice, and observation was carried out by a cofocus laser microscope TCS NT Control laser Scanning Microscope (made by Leica).
# The product obtained by the A.sp.362-derived PLD reaction was studied with respect to its biochemical activity in order to confirm further that it was a compound which is identical to cPA. Namely, the activity of forming actin stress fiber in a fibroblast cell, one of the physiological activities of cPA, was studied. To NIH-3T3, i.e. a fibroblast cell line derived from mouse, in the subconfluent state in the serum starvation state, each 10 μM of LPA, a chemically synthesized PHYLPA, or cPA, i.e. the PLD reaction product was added at 37° C. for 30 minutes, and then actin stress fiber was stained with Rhodamine phalloidin, and observation was carried out.
# [2] = tested on: oligodendrocytes; test: Oligodendrocyte primary culturing system with cPA or LPA added: oligodendrocytes; format: cell-based, rat; conditions: 5 μM per dish; for oligodendrocyte cell number and dendrites: further 10 days after 3P-OL, FIG. 13
# Method: (§1) A mother rat of 18 days of pregnancy (E18Wistar Rat) was put into an anesthesia bottle containing an adequate amount of diethyl ether, and was anesthetized. The anesthetization was carried out for 3-5 minutes and stopped just before death. The mother rat was taken out of the anesthesia bottle, put on a suitable vat to lie on its back, and disinfected at the hypogastric area with ethanol. The rat was tom along a cut line about 3-4 cm upward from the tail joint by a scissors, and opened sideward with the scissors to separate the inner membrane from the skin. The skin was tom to expose the inner membrane, which was disinfected again with ethanol and tom to take out the uterus. The Y-shaped section of the uterus was cut while lifting the uterus, and the uterus was taken out. The taken out uterus was dipped in a cooled MEM^− in order to decrease the damage of the fetus brain.
# (§2) The cerebral cortex was picked by a round pincette into a 35 mm dish to which 2 ml of dispase I (3 U/ml) was added, and was placed in a CO2 5% and humidity 95% incubator at 37° C. for 5 minutes. Then, Dnase (1 ml) was added thereto, and the dish was put in the incubator for 10 minutes again. The resultant solution was sufficiently pipetted while being careful not to make bubbles by a Pasteur pipette having the top end rounded by burning, so that the cells might be free from any bundles. The upper inlet of 50 ml tube was covered with a 70 μm mesh, and the mesh was then wetted with an adequate amount of MEM^−. The cell suspension thus obtained was poured into the tube through the mesh, and about 2 ml of MEM^− was poured to wash the mesh. The mesh was removed, and the resultant was messed up to 30-40 ml with MEM^−. The thus obtained sample was centrifuged at 1,000 rpm for 5 minutes, and the supernatant was removed. The sample was messed up again to 30-40 ml with MEM^−, pipetted and centrifuged again at 1,000 rpm. The supernatant was removed, and the sample was supplied with 30 ml of MEM^−, and sufficiently pipetted, and then the cell number was countered by a cell counter. The cell suspension was inoculated in the PLL-coated dishes to be 1.0×10^7 cells/dish. The liquid was adjusted with MEM^+ to be a final volume of 10 ml/dish, and the cells were cultured in an incubator.
# (§3) After disposal of the culture medium, the dish is washed twice with about 3 ml of PBS(−), and 10 ml of the fresh culture medium is poured. The medium change after the 17th day is carried out using B.S (serum-free medium). Only at the first medium change, 200 μl of bFGF is added per dish. It is because the O-2A precursor cell is grown.
# (§4) The dish is washed twice with about 5 ml of PBS(−). At the first passage, the dish is left stand for 2-3 minutes after supplying PBS(−) at the second time. 2-3 ml of 0.05% trypsin is added, and the dish is left stand in a 37° C. incubator for 8 minutes. After observation of the cell condition with a microscope, while keeping the trypsin as it was, the dish is supplied with MEM^+ at the same amount as the trypsin, and the cells is pipetted to stop the action of trypsin. The resultant was centrifuged at 1,000 rpm for 5 minutes. After removing the supernatant, 20-30 ml of MEM^− is added, and the resultant is pipetted again, centrifuged at 1,000 rpm for 5 minutes. Then, the cell number is counted by a cell counter. The supernatant is discarded, 20-30 ml of MEM^+ (B.S at the third passage) is added, and the resultant is pipetted, and the cell number is counted by a cell counter. Depending on respective passage stages, the cells are inoculated in respective dishes at the following number, and are cultured while left standing in an incubator.
# (§5) From the stage of primary culturing, cPA or LPA was added to be an amount of 5 μM per dish every passage and medium change. […]
# [3] = tested on: primary cultured cerebral cortex cells (neurons); test: Oligodendrocyte primary culturing system with cPA or LPA added: cell appearance at early culturing stage; format: cell-based, rat; conditions: 5 μM per dish, FIG. 7; for aggregation of cells and bundling of neurons: early culturing stage (P-6th day)
# Method: as §1
# as §2, with “The sample was messed up again to 30-40 ml with MEM^−, pipetted and centrifuged again at 1,000 rpm. The supernatant was removed, and the sample was supplied with 30 ml of MEM^−, and sufficiently pipetted, and then the cell number was countered by a cell counter. The cell suspension was inoculated in the PLL-coated dishes to be 1.0×10^7 cells/dish. The liquid was adjusted with MEM^+ to be a final volume of 10 ml/dish, and the cells were cultured in an incubator.” left out
# (§6) The dish is washed twice with about 5 ml of PBS(−). […] Then, the cell number is counted by a cell counter. The supernatant is discarded, 20-30 ml of MEM^+ (B.S at the third passage) is added, and the resultant is pipetted, and the cell number is counted by a cell counter. […]
# [4] = tested on: O-2A precursor cells; test: Oligodendrocyte primary culturing system with cPA or LPA added: O-2A precursor cells; format: cell-based, rat; conditions: 5 μM per dish; for number of O-2A precursor cells versus control: 6th day from first passage (1P-6th day)
# Method: as §1, §2
# After disposal of the culture medium, the dish is washed twice with about 3 ml of PBS(−), and 10 ml of the fresh culture medium is poured. The medium change after the 17th day is carried out using B.S (serum-free medium). […]
# as §6
# [5] = tested on: astrocytes; test: Oligodendrocyte primary culturing system with cPA or LPA added: astrocytes; format: cell-based, rat; conditions: 5 μM per dish; for astrocytes by GFAP staining: 2P-6th day, fluorescence microscope, FIG. 10; for state and cell density of astrocytes: 6th day from second passage (2P-6th day), serum-free medium, FIG. 9; for remaining astrocytes: 6th day from third passage (3P-6th day), FIG. 11
# Method: as §1, §2, §3, §4, §5
# [6] = 3P-6th day, fluorescence microscope, FIG. 12
Compound,formation of actin stress fiber (Rhodamine phalloidin staining) [1],"differentiation of oligodendrocytes by 04 staining ([2]; 2P-6th day, fluorescence microscope, FIG. 10)","state of dendrites of oligodendrocytes ([2]; 3P-6th day, FIG. 11)","extent of MBP staining along the dendrite ([2]; 3P-6th day, FIG. 12)","MBP staining colour versus control [2, 6]",oligodendrocyte cell number and dendrites [2],cell appearance versus control ([3]; 6th day from primary culturing (P-6th day)),aggregation of cells and bundling of neurons [3],number of O-2A precursor cells versus control ([4]; FIG. 8),astrocytes by GFAP staining [5],state and cell density of astrocytes [5],remaining astrocytes [5],"cell density ([4]; 1P-6th day, FIG. 8)",proliferation of O-2A precursor cells (conclusion) ([4]; early culturing stage),survival of astrocytes (conclusion) ([5]; all culturing stages),"survival of astrocytes ([5]; further 10 days after 3P-OL, FIG. 13)"
lysophosphatidic acid [LPA],formation of stress fibers was observed,elongated dendrites to form fine mesh-shape and differentiations is proceeded,dendrites of the oligodendrocytes suffer from aoptosis and begin to be ragged,even the tip of the dendrite is stained,develops color stronger,the cell number itself decreased and the dendrite fell ragged,no large difference in cell appearance,aggregate to form bundles of the neurons,increase in number more remarkably,the tissue of the astrocytes can be confirmed,"lowered in cell density, though not so wrong as in the control",little astrocytes remains,,,,
"CCCCCCCC/C=C\CCCCCCCC(=O)OCC1COP(=O)(O)O1 (stereo not shown) [cPA, 1-oleoyl cyclic phosphatidic acid]",formation of stress fibers was observed,,,,develops color stronger,many dendrites of oligodendrocytes around them which were not suffered from apoptosis,,causes cells to aggregate and neurons to be bundled,increase in number more remarkably,exists in a dense tissue,"remained vigorous, and remained high in cell density",the astrocytes which was deformed to the narrow ones still remain,much higher than the others,promotes O-2A precursor cells to proliferate,promotes the survival of astrocytes through all their culturing stages,the astrocytes survived even at this stage
CCCCCC[C@@H]1C[C@@H]1CCCCCCCC(=O)OC[C@@H]1COP(=O)(O)O1 [PHYLPA],formation of stress fibers was observed,,,,,,,,,,,,,,,
